We go through 27 compounds from patent US20060135501A1, “Piperidinyl-thiazole carboxylic acid derivatives as angiogenesis inhibitors” (priority 2002, published 2006).

The target in one test is T1, rhVEGF165-biotin (Homo sapiens, UniProt P15692).
T1 sequence (P15692 27-191 isoform P15692-4): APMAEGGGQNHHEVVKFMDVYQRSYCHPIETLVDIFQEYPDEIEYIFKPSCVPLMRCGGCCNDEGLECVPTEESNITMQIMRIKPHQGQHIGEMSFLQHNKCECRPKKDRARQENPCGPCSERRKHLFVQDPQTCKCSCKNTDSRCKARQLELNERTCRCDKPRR
Description: VEGF-Binding ELISA (dose-response). As for the experimental part:
The potency of test substances as a VEGF-neutralising moiety is measured in an ELISA format. This assay measures the solution-phase interaction between rhVEGF165-biotin and test sample. Unbound VEGF165-biotin is then immobilised on a solid-phase anti-hVEGF antibody (R&D systems MAB293). The biotin signal is detected with streptavidin-alkaline phosphatase, which gives a colorimetric signal when incubated with p-nitrophenyl phosphate. Plates are read in a spectrophotometer at 405 nm.
(§1) Any test compound that binds to VEGF165-biotin and prevents it from binding to the antibody will lower the color signal and be recognized as a “hit”. Hits were defined as compounds that show>60% inhibition.
VEGF165-biotin+assay buffer ? 0% inhibition
Soluble VEGF receptor (sflt @ 4 nM) ? 70% inhibition
(§2) The primary screening of all library compounds was done at a compound concentration of 50 μM, followed by measuring dose-response effects of “hits” between 0.05 and 500 μM for the calculation of IC50 values.
The compounds were dissolved in DMSO and it was shown that the solvent has no effect on the assay at this concentration.

For test [1], the system named is human umbilical vein endothelial cells (HUVEC). Description: HUVEC proliferation assay co-stimulated with rhVEGF. It counts as cell-based. The method, then:
The HUVEC assay measures the potency of test substances to inhibit in vitro proliferation of human umbilical vein endothelial cells (HUVEC) when co-stimulated with recombinant human vascular endothelial growth factor (rhVEGF).
HUVEC are grown under defined conditions (EGM-2 medium, 37° C., 5% CO2 and 95% humidity). They are seeded into 48-well plates using EBM medium with only 1% serum and incubated for 24 h. This is to ensure that cells are not stimulated before treatment with VEGF and test compound.
Test compounds are diluted in medium to concentrations between 0.05 and 50 μM and dosed together with VEGF165 at 12 ng/ml. This VEGF concentration was determined in a VEGF-dose-response curve to be just sub-optimal for maximum cell proliferation. Cells are incubated for 48 h at above conditions and viable cell density is measured using a tetrazolium compound (MTS). Viable cells reduce MTS into a soluble formazan product, which has an absorbance maximum at 490 nm. The absorbance is directly proportional to cell density.
EBM+1% serum (no VEGF) ? Minimum or Blank
EBM+1% serum (12 ng/ml) ? Maximum

The target in the next test is T2, VEGF (Homo sapiens, UniProt P15692).
T2 sequence (P15692 27-191 isoform P15692-4): T1 sequence (P15692 27-191 isoform P15692-4)
The experiment in a line: Initial medium throughput ELISA assay for inhibition of VEGF (primary screening). The class given is binding. To be noted: initial assessment, primary screening at compound concentration of 50 μM, repeats listed; for Inhibition (%): 50 µM. The method, then: Initially the compounds were assayed for inhibition of VEGF in a medium throughput ELISA assay before detailed assessment in the HUVEC and VEGF binding assays in examples in 9 and 10. The data from this initial assessment is presented in table 5 in the column labelled “Inhibition %”.
as §1, §2

The mark [2] stands for this setting: Homo sapiens, HUVEC, 48 h, Table 5, VEGF165 at 12 ng/ml, MTS, repeats listed.
[3] abbreviates: Table 5, VEGF165 at 12 ng/ml, 48 h, MTS, repeats listed.
Where [4] appears, read: Table 6, first test (unmarked value).
Setting [5] is: Homo sapiens, HUVEC, Table 6, first test (unmarked value).

Structures are written as SMILES. pIC50: −log10 of the molar value. Several values for one entry are separate records, joined by “and”; a condition that tells them apart may be missing. Equal values may be shown once.

Take `COc1ccc(C(N)=O)cc1NC(=O)c1csc(C2CCN(C(=O)c3c(-c4ccccc4)noc3C)CC2)n1` [Compound 1506-00404]: the negative-log IC50 (pIC50) on rhVEGF165-biotin (Table 5, repeats listed) was 3.82; in test [1] (setting [2]), 4.98.

With `COc1ccc(C(N)=O)cc1NC(=O)c1csc(C2CCN(C(=O)c3nnc4cc(C)nn4c3C)CC2)n1` [Compound 1506-00581, N-[5-(aminocarbonyl)-2-methoxyphenyl]-2-{1-[(4,7-dimethylpyrazolo[5,1-c][1,2,4]triazin-3-yl)carbonyl]-4-piperidinyl}-1,3-thiazole-4-carboxamide], the inhibition at 50 µM at VEGF was 88%. Moreover, the pIC50 on rhVEGF165-biotin (Table 5, repeats listed) was 5.36 and 5.30; in test [1] (setting [2]) it was 4.52; in test [1] (setting [3]), 4.51.

Regarding `COc1ccc(C(N)=O)cc1NC(=O)c1csc(C2CCN(C(=O)Cc3c[nH]c4ccccc34)CC2)n1` [Compound 1506-00935], the negative logarithm of the IC50 (pIC50) on rhVEGF165-biotin (Table 5, repeats listed) was 4.54.

On to `COc1ccc(C(N)=O)cc1NC(=O)c1csc(C2CCN(C(=O)Cc3ccc(F)cc3)CC2)n1` [Compound 1506-01112], for which the pIC50 at rhVEGF165-biotin (Table 5, repeats listed) was 4.78; in test [1] (setting [2]) it was 4.59.

For the compound `COc1ccc(C(N)=O)cc1NC(=O)c1csc(C2CCN(C(=O)c3cc4ccccc4o3)CC2)n1` [Compound 1506-01284, N-[5-(aminocarbonyl)-2-methoxyphenyl]-2-[1-(1-benzofuran-2-ylcarbonyl)-4-piperidinyl]-1,3-thiazole-4-carboxamide], the inhibition at 50 µM against VEGF was 85%. In addition, the pIC50 is 4.96 and 4.87 on rhVEGF165-biotin (Table 5, repeats listed); 5.00 in test [1] (setting [2]); 4.90 in test [1] (setting [3]).

The compound `COc1ccc(C(N)=O)cc1NC(=O)c1csc(C2CCN(C(=O)C#Cc3ccccc3)CC2)n1` [Compound 1506-01461, N-[5-(aminocarbonyl)-2-methoxyphenyl]-2-[1-(3-phenyl-2-propynoyl)-4-piperidinyl]-1,3-thiazole-4-carboxamide] yielded an inhibition at 50 µM on VEGF of 88%. For the same compound, the “Inhibition (%)” value on VEGF is 75% and 83%. The negative-log IC50 (pIC50) on rhVEGF165-biotin (Table 5, repeats listed) was 5.40; in test [1] (setting [2]), 4.96.

Consider `COc1ccc(C(N)=O)cc1NC(=O)c1csc(C2CCN(C(=O)C3C(C)(C)C3(C)C)CC2)n1` [Compound 1506-01638], for which 50 µM produced 89% inhibition at VEGF. For the same compound, the pIC50 on rhVEGF165-biotin (Table 5, repeats listed) is 4.15 and < 4.00; in test [1] (setting [2]), 5.27; in test [1] (setting [3]), 5.22.

Take `COc1ccc(C(N)=O)cc1NC(=O)c1csc(C2CCN(C(=O)c3cc(OC)c4ccccc4c3)CC2)n1` [Compound 1506-01810]: the pIC50 on rhVEGF165-biotin (Table 5, repeats listed) was 3.87; in test [1] (setting [2]), 5.25.

In the case of `COCCOCCOCC(=O)N1CCC(c2nc(C(=O)Nc3cc(C(N)=O)ccc3OC)cs2)CC1` [Compound 1506-02159], on rhVEGF165-biotin (Table 5, repeats listed), the negative-log IC50 (pIC50) is 3.89.

On to `C=CCSc1ncccc1C(=O)N1CCC(c2nc(C(=O)Nc3cc(C(N)=O)ccc3OC)cs2)CC1` [Compound 1506-02331, 2-(1-{[2-(allylsulfanyl)-3-pyridinyl]carbonyl}-4-piperidinyl)-N-[5-(aminocarbonyl)-2-methoxyphenyl]-1,3-thiazole-4-carboxamide], for which the “Inhibition (%)” value on VEGF was 43% and 73% and 79%. The negative logarithm of the IC50 (pIC50) is 5.19 on rhVEGF165-biotin (Table 5, repeats listed) and 4.64 in test [1] (setting [2]).

Consider `COc1ccc(C(N)=O)cc1NC(=O)c1csc(C2CCN(C(=O)c3c(F)cccc3Cl)CC2)n1` [Compound 1506-03039], for which the pIC50 was 3.98 on rhVEGF165-biotin (Table 5, repeats listed) and 5.38 in test [1] (setting [2]).

Consider `COc1ccc(C(N)=O)cc1NC(=O)c1csc(C2CCN(C(=O)c3ccc(OC)c(OC)c3OC)CC2)n1` [Compound 1506-03211], for which the pIC50 at rhVEGF165-biotin (Table 5, repeats listed) is 3.88.

Take `COc1ccc(C(N)=O)cc1NC(=O)c1csc(C2CCN(C(=O)c3ccccc3C(F)(F)F)CC2)n1` [Compound 1506-03388]: on VEGF, the inhibition at 50 µM came to 93%; the “Inhibition (%)” value is 87% and 90%. Also, on rhVEGF165-biotin (Table 5, repeats listed), the negative-log IC50 (pIC50) was 5.18. In test [1] (setting [2]), this compound had a negative logarithm of the IC50 (pIC50) of 4.64.

Turning to `COc1ccc(C(=O)N2CCC(c3nc(C(=O)Nc4cc(C(N)=O)ccc4OC)cs3)CC2)cc1` [Compound 1506-03560], the pIC50 on rhVEGF165-biotin (Table 5, repeats listed) was 5.44; in test [1] (setting [2]), 4.79.

Take `COc1ccc(C(N)=O)cc1NC(=O)c1csc(C2CCN(C(=O)Cc3ccccc3Cl)CC2)n1` [Compound 1506-03737, N-[5-(aminocarbonyl)-2-methoxyphenyl]-2-{1-[(2-chlorophenyl)acetyl]-4-piperidinyl}-1,3-thiazole-4-carboxamide]: on VEGF, testing at 50 µM gave an inhibition of 60%; the “Inhibition (%)” value was 70% and 74%. The pIC50 in test [1] (setting [2]) was 5.05.

Take `COc1ccc(C(N)=O)cc1NC(=O)c1csc(C2CCN(C(=O)COc3ccc(C)c(C)c3)CC2)n1` [Compound 1506-03914, N-[5-(aminocarbonyl)-2-methoxyphenyl]-2-{1-[(3,4-dimethylphenoxy)acetyl]-4-piperidinyl}-1,3-thiazole-4-carboxamide]: on VEGF, 50 µM produced 77% inhibition; the “Inhibition (%)” value was 70% and 81%. The compound also had a pIC50 at rhVEGF165-biotin (Table 5, repeats listed) of 5.35. The compound also gave a pIC50 in test [1] (setting [2]) of 4.77.

Take `COc1ccc(C(N)=O)cc1NC(=O)c1csc(C2CCN(C(=O)c3ccc(OC(C)C)cc3)CC2)n1` [Compound 1506-04091]: the negative logarithm of the IC50 (pIC50) on rhVEGF165-biotin (Table 5, repeats listed) was 4.80 and 4.81.

`COc1ccc(C(N)=O)cc1NC(=O)c1csc(C2CCN(C(=S)Nc3ccc(N(C)C)cc3)CC2)n1` [Compound 1506-06813, N-[5-(aminocarbonyl)-2-methoxyphenyl]-2-[1-({[4-(dimethylamino)phenyl]amino}carbonothioyl)-4-piperidinyl]-1,3-thiazole-4-carboxamide] displayed an inhibition at 50 µM on VEGF of 88%. Further, the pIC50 is 5.14 and 5.82 at rhVEGF165-biotin (Table 5, repeats listed); 5.01 in test [1] (setting [2]); 5.09 in test [1] (setting [3]).

`CC#CCOC(=O)N1CCC(c2nc(C(=O)Nc3cc(C(N)=O)ccc3OC)cs2)CC1` [Compound 1506-07095] showed a pIC50 on rhVEGF165-biotin (Table 5, repeats listed) of 3.76.

For `COc1ccc(C(N)=O)cc1NC(=O)c1csc(C2CCN(C(=O)NCCC3=CCCCC3)CC2)n1` [Compound 1506-07554], the pIC50 is 3.85 on rhVEGF165-biotin (Table 5, repeats listed) and 4.46 in test [1] (setting [2]).

Turning to `COc1ccc(C(N)=O)cc1NC(=O)c1csc(C2CCN(C(=O)N3CCN(c4ccccn4)CC3)CC2)n1` [Compound 1506-08218, N-[5-(aminocarbonyl)-2-methoxyphenyl]-2-(1-{[4-(2-pyridinyl)-1-piperazinyl]carbonyl}-4-piperidinyl)-1,3-thiazole-4-carboxamide], on VEGF, the inhibition at 50 µM amounted to 52%; the “Inhibition (%)” value is 60% and 62%. At rhVEGF165-biotin (Table 5, repeats listed), this compound showed a negative-log IC50 (pIC50) of 4.83. Besides, the negative logarithm of the IC50 (pIC50) in test [1] (setting [2]) is 4.81.

Compound `COc1ccc(C(N)=O)cc1NC(=O)c1csc(C2CCN(C(=O)Cc3ccc(SC)cc3)CC2)n1` [Compound 1506-08674] showed a negative-log IC50 (pIC50) on rhVEGF165-biotin (Table 5, repeats listed) of 4.96.

`COc1ccc(C(N)=O)cc1NC(=O)c1csc(C2CCN(C(=O)c3cnn(-c4ccccc4)c3)CC2)n1` [Compound 1506-08772] displayed an inhibition at 50 µM on VEGF of 91%. In addition, the pIC50 on rhVEGF165-biotin (Table 5, repeats listed) is 4.27 and 3.90; in test [1] (setting [2]), 4.60.

For the compound `NC(=O)c1ccc(Cl)c(NC(=O)c2csc(C3CCN(C(=O)Cc4ccccc4Cl)CC3)n2)c1` [Compound 1633-00375], the negative-log IC50 (pIC50) on rhVEGF165-biotin (Table 6, **tested after re-synthesised, $solubility problems) was 5.05; at rhVEGF165-biotin (setting [4]), 5.30; in test [1] (Homo sapiens, HUVEC, Table 6, **tested after re-synthesised, $solubility problems) it was 4.77; in test [1] (setting [5]), 6.35.

As for `NC(=O)c1ccc(Cl)c(NC(=O)c2csc(C3CCN(C(=O)CCc4ccco4)CC3)n2)c1` [Compound 1633-00377], the pIC50 is 5.30 at rhVEGF165-biotin (setting [4]) and 6.65 in test [1] (setting [5]).

In the case of `C=CCCOc1ccc(C(=O)N2CCC(c3nc(C(=O)Nc4cc(C(N)=O)ccc4Cl)cs3)CC2)cc1` [Compound 1633-00884], the results for the pIC50 (at rhVEGF165-biotin (setting [4]); in test [1] (setting [5])) were 4.52 and 6.19, respectively.

`NC(=O)Cc1ccc(Cl)c(NC(=O)c2csc(C3CCN(C(=O)CCc4ccco4)CC3)n2)c1` [Compound 1633-01861]: the pIC50 was 4.89 on rhVEGF165-biotin (setting [4]) and 6.10 in test [1] (setting [5]).
